Key:
2.2.15 cells = test: Toxicity in 2.2.15 cells, neutral red dye uptake; format: cell-based, human; settings: Table II; read-out: HBV IC50
Method: Cells of 2.2.15 were grown to confluence in 96-well flat-bottomed tissue culture plates and treated with compounds (in 0.2 mL culture medium/well) as described above. Four concentrations of each compound were assayed, each in triplicate cultures, in 3- to 10-fold steps. Untreated control cultures were maintained on each 96-well plate. On each 96-well plate, wells containing no cells were used to correct for light scattering.

HCMV = HCMV semi-automated CPE-inhibition assay in human foreskin fibroblast cells; format: cell-based, human cytomegalovirus; settings: Table II
[1] = test system: human foreskin fibroblast cells; test: Toxicity run with the HCMV assay, human foreskin fibroblast cells; format: cell-based; settings: Table II
Method in brief: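 Human foreskin fibroblasts exposed to drug at 37 °C in CO2, either 72 h followed by Coulter Counter counts (triplicate counts, three replicate wells), or seven days followed by dye staining for 1 h and optical density at 550 nm.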

VZV = VZV plaque reduction assay in human foreskin fibroblast cells; format: cell-based, varicella zoster virus; settings: Table II
Method: Two days prior to use, HFF cells are plated into six-well plates and incubated at 37° C. with 5% CO2 and 90% humidity. On the date of assay, the drug is made up at twice the desired concentration in 2x MEM and then serially diluted 1:5 in 2x MEM using six concentrations of drug. The initial starting concentration is usually 200 gg/mL down to 0.06 μg/mL. The virus to be used is diluted in MEM containing 10% FBS to a desired concentration which will give 20-30 plaques per well. The media is then aspirated from the wells and 0.2 mL of virus is added to each well in duplicate with 0.2 mL of media being added to drug toxicity wells. The plates are then incubated for one hour with shaking every fifteen minutes. After the incubation period, an equal amount of 1% agarose was added to an equal volume of each drug dilution. This will give final drug concentrations beginning with 100 μg/mL and ending with 0.03 μg/mL and a final agarose overlay concentration of 0.5%. The drug agarose mixture is applied to each well in 2 mL volume and the plates then incubated for three days, after which the cells were stained with a 1.5% solution of neutral red. At the end of 4-6hr incubation period, the stain is aspirated, and plaques counted using a stereomicroscope at lOx magnification.
The procedure is essentially the same as for the HSV plaque assay described above with two exceptions:
1. After addition of the drug, the plates are incubated for ten days.
2. On days three and six, an additional 1 mL overlay with equal amounts of 2x MEM and 1% agarose are added.

[2] = test system: human foreskin fibroblast cells; test: Toxicity run with the VZV assay, human foreskin fibroblast cells; format: cell-based; settings: Table II
Method: [table] […] The media from the wells is then aspirated and 2 mL of each drug concentration is then added to each well. The cells are then incubated in a CO2 incubator at 37° C. for 72 h. At the end of this time, the media-drug solution is removed and the cells washed. […] The cell-media mixture is then pipetted up and down vigorously to break up the cell suspension, and 0.2 mL of the mixture is added to 9.8 mL of Isoton III and counted using a Coulter Counter. Each sample is counted three times with three replicate wells per sample. The procedure for plating cells and adding drug is the same as for the MTT Assay. After drug addition, the plates are incubated for seven days in a CO2 incubator at 37° C. […] This is incubated in the CO2 incubator for one hour. The dye is aspirated and the cells are washed using a Nunc Plate Washer. […] The plates are rotated for 15 minutes and the optical densities are read at 550 nm on a plate reader.

measles = test: Measles virus inhibition of viral CPE in BSC-1 cells; format: cell-based; settings: Table II footnote g
[3] = test system: HCMV isolates Towne, AD169, E. Mann, Coffman, C9208; test: Anti-CMV plaque reduction assay against various laboratory and clinical isolates (Example 40); format: cell-based, human cytomegalovirus
Method: On the date of assay, the drug is made up at twice the desired concentration in 2x MEM and then serially diluted 1:5 in 2x MEM using six concentrations of drug. The initial starting concentration is usually 200 gg/mL down to 0.06 μg/mL. […] The media is then aspirated from the wells and 0.2 mL of virus is added to each well in duplicate with 0.2 mL of media being added to drug toxicity wells. The plates are then incubated for one hour with shaking every fifteen minutes. […] This will give final drug concentrations beginning with 100 μg/mL and ending with 0.03 μg/mL and a final agarose overlay concentration of 0.5%. The drug agarose mixture is applied to each well in 2 mL volume and the plates then incubated for three days, after which the cells were stained with a 1.5% solution of neutral red. At the end of 4-6hr incubation period, the stain is aspirated, and plaques counted using a stereomicroscope at lOx magnification. The procedure again is nearly the same as for HSV with a few minor changes. […] The assay is incubated for 14 days with the additional 1 mL overlays being applied on days four and eight. The procedure for the liquid overlay plaque assay is similar to that using the agarose overlay. The procedure for adding the virus is the same as for the regular plaque assay. The drugs are made up in a concentration to be used in MEM with 2% FBS. The drugs are not made up at 2x concentration as in the previous assays but are made up at the desired concentration. For HSV-1 and HSV-2 assays, an antibody preparation obtained from Baxter Health Care Corporation is diluted 1:500 and added to the media that the drug is diluted in. For CMV and VZV, no antibody in the overlay is utilized. For the CMV assay, additional medium without new drug is added on day five and allowed to incubate for a total of 10 days. For VZV, additional medium is added on day five and incubated for a total of 10 days. At the end of the incubation period for all of the assays, 2 mL of 1:10 dilution of stock neutral is added to each well incubated for six hours. The liquid is then aspirated off and plaques enumerated using a stereomicroscope. Five calanolide analogues, prepared as described above, were further evaluated for their anti-HCMV activity in plaque reduction assay against various laboratory and clinical isolates (Towne, AD 169, E. Mann, Coffinan, and […]).

[4] = test system: human foreskin fibroblast cells; test: Cell viability in the CMV plaque reduction assay (MTC); format: cell-based
From the text: Five calanolide analogues, prepared as described above, were further evaluated for their anti-HCMV activity in plaque reduction assay against various laboratory and clinical isolates (Towne, AD 169, E. Mann, Coffinan, and C9208).

[5] = test system: Human lung carcinoma (A549) cells; test: Cytotoxicity run with the adenovirus assay; settings: read-out: Others IC50, against adenovirus type-1; Table II footnote h
HBV = HBV replication in cultures of 2.2.15 cells, extracellular HBV virion DNA (primary assay); settings: read-out: HBV EC50; Table II
Method: Both intracellular and extracellular HBV DNA are analyzed in order to (i) allow for verification of compound efficacy and (ii) provide possible data on the target site in the HBV replication pathway for the compound from examination of the pattern of viral replicative forms. The culture medium is changed daily during the treatment period to (i) prevent the buildup of potentially toxic metabolites derived from test compounds and (ii) provide an analysis of HBV virion production during discrete 24-hour intervals which enables a quantitative comparison of any effect on virion production.
The analysis of HBV DNA is performed using blot hybridization techniques (Southern and slot blot) and [^32P]-labeled HBV-specific probes. HBV DNA levels are measured by comparison to known amounts of HBV DNA standards applied to every nitrocellulose membrane (gel or slot blot). An AMBIS beta scanner, which measures the radioactive decay of the hybridized probes directly from the nitrocellulose membranes, is used for the quantitative analysis. Standard curves, generated by multiple analyses, are used to correlate CPM measurements made by the beta scanner with relative levels of target HBV DNA. The levels of HBV virion DNA released into the culture medium are analyzed by a slot blot hybridization procedure.

EBV = EBV assay: superinfection of Raji or Daudi cells with P3HR-1, immunofluorescence for EA and VCA; format: cell-based, Epstein-Barr virus; settings: Table II
From the text: There are two prototypes of infectious EBV. One is exemplified by the virus derived from supernatant fluids of the P3HR-1cell line. This cell line produces nontransforming virus that causes the production of early antigen (EA) after primary infection or superinfection of B cell lines. The other prototype is exemplified by the B-95-8 virus. This virus immortalized cord blood lymphocytes and induced tumors in marmosets.
The virus used in our assays is P3HR-1.
Ramos is an exceptional B cell line derived from Burkitt's lymphoma tumor but containing no detectable EBV genome copies and is EBNA negative. Ramos/AW was obtained by in vitro infection of Ramos with the P3HR-1 virus and contains one resident EBV genome copy/cell. Raji is a Burkitt's lymphoma cell line containing 60 EBV genomes/cell, and will be the primary cell used for screening antiviral activity against EBV EA expression. Daudi is a low level producer that contains 152 EBV genome copies/cell. It spontaneously expresses EBV EA in 0.25%-0.5% of the cells. It will be used in follow-up studies to confirm activity. These cell lines respond to superinfection by EBV by expressing EA(D), EA(R), and VCA. All cell lines are maintained in RPMI-1640 medium supplemented by 10% FCS, L-glutamine and 100 μg/mL gentamicin. The cultures are fed twice weekly and the cell concentration adjusted to 3×10^5/mL. The cells are kept at 37° C. in a humidified atmosphere with 5% CO2.
Cells are infected with the P3HR-1 strain of EBV and the drugs to be tested are added after adsorption (45 minutes at 37° C.) and washing of the cell cultures. The cultures are incubated for two days in complete medium to allow viral gene expression. Following the 48 hr incubation period, the number of cells of each sample are counted and smears made. Monoclonal antibodies to the different EA components and VCA are then added to the cells incubated and washed. This is followed by a fluorescein conjugated rabbit anti-mouse Ig antibody; and the number of fluorescence positive cells in the smears are counted. The total number of cells in the cultures positive for EA or VCA are then calculated and compared.

Raji or Daudi cells = test: Toxicity run with the EBV assay; format: cell-based, human; settings: Table II
From the text: IC50 (50% inhibitory concentration) is the concentration required to inhibit cell proliferation by 50%

influenza A(H1N1) = test: Influenza A inhibition of viral CPE in MDCK cells; format: cell-based, influenza A virus; settings: Table II footnote i; read-out: Others EC50, against influenza A(H1N1)
[6] = test system: Madin Darby canine kidney (MDCK) cells; test: Cytotoxicity run with the influenza assay; format: cell-based; settings: Table II footnote i; read-out: Others IC50, against influenza A(H1N1)
Method: Virus strains: A/Texas/36191 (H1N1) (Source: Center for Disease Control and Prevention [CDC]), A/Beijing/2/92 (H3N2) (Source: CDC), B/Panama/45/90 (Source: CDC), A/NWS/33 (H1N1) (Source: American Type Culture Collection [ATCC]). (All but A/NWS/33 are tested in the presence of trypsin). Cell lines: Madin Darby canine kidney (MDCK) cells.

CCCc1cc(=O)oc2c3c(c4c(c12)OC(C)(C)CC4)OC(C)C(C)C3O (single isomer, unassigned; (-)) [(−)-23]
IC50 (2.2.15 cells): 340 µM
HCMV EC50 (HCMV): >4.0 µg/mL
HCMV IC50 [1]: 18.8 µg/mL
VZV EC50 (VZV): >4.0 µg/mL
VZV IC50 [2]: 16.0 µg/mL
Others EC50, against measles (measles): 20^g μM
EC50 ([3]; isolate AD169): 3.16 µM
EC50 ([3]; isolate C9208): 2.99 µM
EC50 ([3]; isolate Coffman): 3.16 µM
EC50 ([3]; isolate E. Mann): 3.16 µM
EC50 ([3]; isolate Towne): 3.16 µM
MTC (minimum drug concentration that reduced cell viability by 25%) ([4]; isolate AD169): 10 µM
MTC (minimum drug concentration that reduced cell viability by 25%) ([4]; isolate C9208): 10 µM
MTC (minimum drug concentration that reduced cell viability by 25%) ([4]; isolate Coffman): <100 µM
MTC (minimum drug concentration that reduced cell viability by 25%) ([4]; isolate E. Mann): 10 µM
MTC (minimum drug concentration that reduced cell viability by 25%) ([4]; isolate Towne): 10 µM
IC50 [5]: > 100 µM
EC50 (HBV): 3.5 µM

CC1Oc2c3c(c4c(-c5ccccc5)cc(=O)oc4c2C(O)C1C)OC(C)(C)C=C3 (single isomer, unassigned; (-)) [(−)-24]
IC50 (2.2.15 cells): 151 µM
HCMV EC50 (HCMV): >4.0 µg/mL
HCMV IC50 [1]: 14.4 µg/mL
EBV EC50 (EBV): >50 µg/mL
EBV IC50 (Raji or Daudi cells): >50 µg/mL
VZV EC50 (VZV): >4.0 µg/mL
VZV IC50 [2]: 12.0 µg/mL
EC50 (influenza A(H1N1)): 57 µM
IC50 [6]: > 100 µM
EC50 (HBV): > 10 µM

Reference: patent publication US20020013478A1, “Calanolide analogues and methods of their use” (Sarawak Medichem Pharmaceuticals,Inc., priority 1994, published 2002)
